Results as given in US11725015B2, “Macrocyclic compound and uses thereof” (President and Fellows of Harvard College, priority 2017, dated 2023).

How the values were obtained:
[1] = not only in vitro but also in vivo; cited from earlier work
[2] = tested on: HSC-2-Luc orthotopic transplantation (tongue); assay: HSC-2 orthotopic transplantation mouse model; assay type: in vivo, mice; settings: Q7D×3
[3] = various in vivo models; cited from earlier work
[4] = in comparison with Halichondrin B; cited from earlier work

SMILES: C=C1C[C@@H]2CC[C@@]34C[C@H]5O[C@H]6[C@@H](O3)[C@H]3O[C@H](CC[C@@H]3O[C@H]6[C@H]5O4)CC(=O)O[C@@H]3[C@@H](C)[C@@H]4O[C@@H]5C[C@]6(CC7O[C@@]8(C[C@H](C)C7O6)C[C@H](C)[C@@H]6O[C@H](CC(=O)O)[C@H](O)C[C@@H]6O8)O[C@@H]5CC4O[C@H]3C[C@H]3O[C@@H](CC[C@@H]1O2)C[C@@H](C)C3=C (some centres unmarked) [Norhalichondrin B]
- anti-tumor activity compared with Halichondrin B [1]: much weaker than Halichondrin B

SMILES: N.N.[Cl][Pt][Cl] [Cisplatin, cisplatin, reference compound]
- ILS (%) ([2]; 5 mg/kg intravenously + cetuximab 5 mg/kg): 150%
- ILS (%) ([2]; 5 mg/kg intravenously, without cetuximab): 0%

SMILES: C=C1C[C@@H]2CC[C@@]34C[C@@]5(O)O[C@H]6[C@@H](O3)[C@H]3O[C@H](CC[C@@H]3O[C@H]6[C@H]5O4)CC(=O)O[C@@H]3[C@@H](C)[C@@H]4O[C@@H]5C[C@]6(C[C@@H]7O[C@]8(C[C@H](C)[C@@H]9O[C@H]([C@@H](O)C[C@@H](O)CO)C[C@@H]9O8)C[C@H](C)[C@@H]7O6)O[C@@H]5C[C@@H]4O[C@H]3C[C@H]3O[C@@H](CC[C@@H]1O2)C[C@@H](C)C3=C [Halichondrin C]
- activity in vivo [3]: active in various in vivo models
- stability in aqueous solution [4]: unstable in aqueous solution
